According to patent EP0521963B1, “CRF ANALOGS” (THE SALK INSTITUTE FOR BIOLOGICAL STUDIES, priority 1990, dated 1998):

Tested on: cultured rat pituitary cells
Assay: Stimulation of secretion of ACTH and β-endorphin by cultured rat pituitary cells (procedure of Endocrinology, 91, 562 (1972))
Type: cell-based
Details: compared against synthetic oCRF, read-out: Half-maximal responses
Text: This synthetic peptide is examined for its effects on the secretion of ACTH and β-endorphin in vitro and also in vivo.

EC50: ~0.25 nM
SMILES: CC[C@H](C)[C@H](NC(=O)[C@H](CC(=O)O)NC(=O)[C@H](CC(C)C)NC(=O)[C@H](CC(C)C)NC(=O)[C@H](CCCCN)NC(=O)[C@H](CCCNC(=N)N)NC(=O)[C@H](CC(N)=O)NC(=O)[C@H](CO)NC(=O)[C@H](Cc1c[nH]cn1)NC(=O)[C@H](C)NC(=O)[C@H](CCC(N)=O)NC(=O)[C@H](CCC(N)=O)NC(=O)[C@H](C)NC(=O)[C@H](CC(C)C)NC(=O)[C@H](CCC(N)=O)NC(=O)[C@H](CC(=O)O)NC(=O)[C@H](C)NC(=O)[C@H](CCCCN)NC(=O)[C@@H](NC(=O)[C@H](CCSC)NC(=O)[C@H](CCC(=O)O)NC(=O)[C@H](CC(C)C)NC(=O)[C@@H](NC(=O)[C@H](CCC(=O)O)NC(=O)[C@H](CCCNC(=N)N)NC(=O)[C@H](CC(C)C)NC(=O)[C@H](CC(C)C)NC(=O)[C@H](Cc1c[nH]cn1)NC(=O)[C@H](Cc1ccccc1)NC(=O)[C@@H](NC(=O)[C@H](CC(C)C)NC(=O)[C@H](CC(=O)O)NC(=O)[C@H](CC(C)C)NC(=O)[C@H](CO)NC(=O)[C@@H](NC(=O)[C@@H]1CCCN1C(=O)[C@@H]1CCCN1C(=O)[C@H](CCC(=O)O)NC(=O)[C@H](CCC(N)=O)NC(=O)[C@@H](N)CO)[C@@H](C)CC)[C@@H](C)O)C(C)C)[C@@H](C)O)C(=O)N[C@@H](C)C(N)=O [oCRF]
